Active and inactive are the calls of the source.
Assays:
Format in all cases: functional, cell-based
[1] = test system: M14; assay: Growth inhibition of human M14 cells at 10 uM by sulforhodamine B assay
[2] = test system: SK-OV-3; assay: Growth inhibition of human SKOV3 cells at 10 uM by sulforhodamine B assay
[3] = test system: RXF 393; assay: Growth inhibition of human RXF393 cells at 10 uM by sulforhodamine B assay
[4] = test system: CAKI-1; assay: Growth inhibition of human Caki1 cells at 10 uM by sulforhodamine B assay
[5] = test system: HCC 2998; assay: Growth inhibition of human HCC2998 cells at 10 uM by sulforhodamine B assay
[6] = test system: HCT-15; assay: Growth inhibition of human HCT15 cells at 10 uM by sulforhodamine B assay
[7] = test system: HOP-92; assay: Growth inhibition of human HOP92 cells at 10 uM by sulforhodamine B assay
[8] = test system: NCI/ADR-RES; assay: Growth inhibition of human NCI/ADR-RES cells at 10 uM by sulforhodamine B assay
[9] = test system: RPMI-8226; assay: Growth inhibition of human RPMI8226 cells at 10 uM by sulforhodamine B assay
[10] = test system: DU-145; assay: Growth inhibition of human DU145 cells at 10 uM by sulforhodamine B assay
[11] = test system: SK-MEL-28; assay: Growth inhibition of human SK-MEL-28 cells at 10 uM by sulforhodamine B assay
[12] = test system: A549; assay: Growth inhibition of human A549/ATCC cells at 10 uM by sulforhodamine B assay
[13] = test system: CCRF-CEM; assay: Growth inhibition of human CCRF-CEM cells at 10 uM by sulforhodamine B assay
[14] = test system: Malme-3M; assay: Growth inhibition of human MALME-3M cells at 10 uM by sulforhodamine B assay
[15] = test system: UACC-62; assay: Growth inhibition of human UACC62 cells at 10 uM by sulforhodamine B assay
[16] = test system: MDA-MB-231; assay: Growth inhibition of human MDA-MB-231 cells at 10 uM by sulforhodamine B assay
[17] = test system: HL-60(TB); assay: Growth inhibition of human HL-60(TB) cells at 10 uM by sulforhodamine B assay
[18] = test system: SK-MEL-5; assay: Growth inhibition of human SK-MEL-5 cells at 10 uM by sulforhodamine B assay
[19] = test system: BT-549; assay: Growth inhibition of human BT549 cells at 10 uM by sulforhodamine B assay
[20] = test system: NCI-H460; assay: Growth inhibition of human NCI-H460 cells at 10 uM by sulforhodamine B assay
[21] = test system: HCT-116; assay: Growth inhibition of human HCT116 cells at 10 uM by sulforhodamine B assay
[22] = test system: OVCAR-5; assay: Growth inhibition of human OVCAR5 cells at 10 uM by sulforhodamine B assay
[23] = test system: OVCAR-3; assay: Growth inhibition of human OVCAR3 cells at 10 uM by sulforhodamine B assay
[24] = test system: SK-MEL-2; assay: Growth inhibition of human SK-MEL-2 cells at 10 uM by sulforhodamine B assay
[25] = test system: ACHN; assay: Growth inhibition of human ACHN cells at 10 uM by sulforhodamine B assay
[26] = test system: HT-29; assay: Growth inhibition of human HT-29 cells at 10 uM by sulforhodamine B assay
[27] = test system: T47D; assay: Growth inhibition of human T47D cells at 10 uM by sulforhodamine B assay
[28] = test system: OVCAR-8; assay: Growth inhibition of human OVCAR8 cells at 10 uM by sulforhodamine B assay
[29] = test system: A498; assay: Growth inhibition of human A498 cells at 10 uM by sulforhodamine B assay
[30] = test system: TK-10; assay: Growth inhibition of human TK10 cells at 10 uM by sulforhodamine B assay
[31] = test system: Hs-578T; assay: Growth inhibition of human Hs 578T cells at 10 uM by sulforhodamine B assay
[32] = test system: SF-539; assay: Growth inhibition of human SF539 cells at 10 uM by sulforhodamine B assay
[33] = test system: 786-0; assay: Growth inhibition of human 786-0 cells at 10 uM by sulforhodamine B assay
[34] = test system: HOP-62; assay: Growth inhibition of human HOP62 cells at 10 uM by sulforhodamine B assay
[35] = test system: OVCAR-4; assay: Growth inhibition of human OVCAR4 cells at 10 uM by sulforhodamine B assay
[36] = test system: IGROV-1; assay: Growth inhibition of human IGROV1 cells at 10 uM by sulforhodamine B assay
[37] = test system: NCI-H522; assay: Growth inhibition of human NCI-H522 cells at 10 uM by sulforhodamine B assay
[38] = test system: MDA-MB-468; assay: Growth inhibition of human MDA-MB-468 cells at 10 uM by sulforhodamine B assay
[39] = test system: MOLT-4; assay: Growth inhibition of human MOLT4 cells at 10 uM by sulforhodamine B assay
[40] = test system: NCI-H23; assay: Growth inhibition of human NCI-H23 cells at 10 uM by sulforhodamine B assay
[41] = test system: PC-3; assay: Growth inhibition of human PC3 cells at 10 uM by sulforhodamine B assay
[42] = test system: KM12; assay: Growth inhibition of human KM12 cells at 10 uM by sulforhodamine B assay
[43] = test system: UACC-257; assay: Growth inhibition of human UACC257 cells at 10 uM by sulforhodamine B assay
[44] = test system: NCI-H322M; assay: Growth inhibition of human NCI-H322M cells at 10 uM by sulforhodamine B assay
[45] = test system: SW-620; assay: Growth inhibition of human SW620 cells at 10 uM by sulforhodamine B assay
[46] = test system: NCI-H226; assay: Growth inhibition of human NCI-H226 cells at 10 uM by sulforhodamine B assay
[47] = test system: COLO 205; assay: Growth inhibition of human COLO205 cells at 10 uM by sulforhodamine B assay
[48] = test system: SR; assay: Growth inhibition of human SR cells at 10 uM by sulforhodamine B assay
[49] = test system: SNB-75; assay: Growth inhibition of human SNB75 cells at 10 uM by sulforhodamine B assay
[50] = test system: SNB-19; assay: Growth inhibition of human SNB19 cells at 10 uM by sulforhodamine B assay
[51] = test system: SF-295; assay: Growth inhibition of human SF295 cells at 10 uM by sulforhodamine B assay
[52] = test system: MDA-MB-435; assay: Growth inhibition of human MDA-MB-435 cells at 10 uM by sulforhodamine B assay
[53] = test system: U-251; assay: Growth inhibition of human U251 cells at 10 uM by sulforhodamine B assay
[54] = test system: LOX IMVI; assay: Growth inhibition of human LOXIMVI cells at 10 uM by sulforhodamine B assay
[55] = test system: SN12C; assay: Growth inhibition of human SN12C cells at 10 uM by sulforhodamine B assay
[56] = test system: MCF7; assay: Growth inhibition of human MCF7 cells at 10 uM by sulforhodamine B assay
[57] = test system: K562; assay: Growth inhibition of human K562 cells at 10 uM by sulforhodamine B assay
[58] = test system: SF-268; assay: Growth inhibition of human SF268 cells at 10 uM by sulforhodamine B assay
[59] = test system: UO-31; assay: Growth inhibition of human UO31 cells at 10 uM by sulforhodamine B assay

Measured: growth inhibition (GI)

C#CCn1c(-c2ccc(OC)c(OC3CCCC3)c2)nc(-c2ccccc2)c1-c1ccccc1
active: all assays above

COc1ccc(-c2nc(-c3ccccc3)c(-c3ccccc3)[nH]2)cc1OC1CCCC1
active: all assays above
